Laboratory results taken from the NIST ThermoML archive (doi:10.1016/j.jct.2014.01.020).
± gives the expanded uncertainty stated by the source.

Assay: xn = mol fraction of the nth substance listed
Conditions: 333.15 K, Liquid; for mass density: Vibrating tube method; for viscosity: 101 kPa, Concentric cylinders viscometry

C1CCCCC1 [cyclohexane] + CCCCO
mass density [kg/m3]
Conditions | x2 = 0.1 | x2 = 0.2 | x2 = 0.3003 | x2 = 0.4005 | x2 = 0.4997 | x2 = 0.6001 | x2 = 0.6999 | x2 = 0.7998 | x2 = 0.8999
100 kPa | – | – | – | – | – | – | – | – | 772.4 ± 0.7
1000 kPa | 741.7 ± 0.7 | 744 ± 0.7 | 746.9 ± 0.7 | 750.3 ± 0.7 | 754.1 ± 0.7 | 758.4 ± 0.7 | 763 ± 0.7 | 767.9 ± 0.7 | 773.3 ± 0.7
2000 kPa | 742.8 ± 0.7 | 745.1 ± 0.7 | 748 ± 0.7 | 751.4 ± 0.7 | 755.2 ± 0.7 | 759.4 ± 0.7 | 764 ± 0.7 | 768.9 ± 0.7 | 774.2 ± 0.7
5000 kPa | 746.1 ± 0.7 | 748.3 ± 0.7 | 751.1 ± 0.7 | 754.5 ± 0.7 | 758.2 ± 0.7 | 762.4 ± 0.7 | 766.9 ± 0.7 | 771.8 ± 0.7 | 777 ± 0.7
10000 kPa | 751.1 ± 0.7 | 753.3 ± 0.7 | 756.1 ± 0.7 | 759.4 ± 0.7 | 763 ± 0.7 | 767.1 ± 0.7 | 771.5 ± 0.7 | 776.2 ± 0.7 | 781.3 ± 0.7
15000 kPa | 755.9 ± 0.7 | 758 ± 0.7 | 760.8 ± 0.7 | 764 ± 0.7 | 767.5 ± 0.7 | 771.5 ± 0.7 | 775.8 ± 0.7 | 780.4 ± 0.7 | 785.4 ± 0.7
20000 kPa | 760.5 ± 0.8 | 762.5 ± 0.8 | 765.2 ± 0.8 | 768.4 ± 0.8 | 771.8 ± 0.8 | 775.7 ± 0.8 | 780 ± 0.8 | 784.5 ± 0.8 | 789.4 ± 0.7
30000 kPa | 768.9 ± 0.8 | 770.8 ± 0.8 | 773.4 ± 0.8 | 776.4 ± 0.8 | 779.8 ± 0.8 | 783.6 ± 0.8 | 787.6 ± 0.8 | 792 ± 0.8 | 796.7 ± 0.8
40000 kPa | 776.5 ± 0.8 | 778.3 ± 0.8 | 780.8 ± 0.8 | 783.8 ± 0.8 | 787 ± 0.8 | 790.7 ± 0.8 | 794.6 ± 0.8 | 798.8 ± 0.8 | 803.4 ± 0.8
50000 kPa | 783.5 ± 0.9 | 785.2 ± 0.9 | 787.7 ± 0.9 | 790.6 ± 0.9 | 793.7 ± 0.8 | 797.2 ± 0.8 | 801.1 ± 0.8 | 805.2 ± 0.8 | 809.7 ± 0.8
60000 kPa | 790 ± 0.9 | 791.7 ± 0.9 | 794.1 ± 0.9 | 797 ± 0.9 | 800.1 ± 0.9 | 803.4 ± 0.9 | 807.1 ± 0.9 | 811.2 ± 0.9 | 815.6 ± 0.9
70000 kPa | 796.1 ± 0.9 | 797.7 ± 0.9 | 800 ± 0.9 | 802.9 ± 0.9 | 805.8 ± 0.9 | 809.2 ± 0.9 | 812.9 ± 0.9 | 816.8 ± 0.9 | 821.2 ± 0.9
80000 kPa | 801.9 ± 1 | 803.3 ± 1 | 805.7 ± 1 | 808.4 ± 1 | 811.3 ± 0.9 | 814.6 ± 0.9 | 818.3 ± 0.9 | 822.1 ± 0.9 | 826.3 ± 0.9
90000 kPa | 807.3 ± 1 | 808.7 ± 1 | 810.9 ± 1 | 813.7 ± 1 | 816.5 ± 1 | 819.8 ± 1 | 823.3 ± 1 | 827.2 ± 1 | 831.3 ± 0.9
100000 kPa | 812.4 ± 1 | 813.8 ± 1 | 816 ± 1 | 818.7 ± 1 | 821.5 ± 1 | 824.7 ± 1 | 828.1 ± 1 | 831.9 ± 1 | 836 ± 1

Conditions | viscosity [mPa·s]
x2 = 0 | 0.522 ± 0.012
x2 = 0.1073 | 0.522 ± 0.012
x2 = 0.1991 | 0.535 ± 0.012
x2 = 0.2998 | 0.565 ± 0.012
x2 = 0.4006 | 0.605 ± 0.013
x2 = 0.4997 | 0.657 ± 0.014
x2 = 0.6001 | 0.723 ± 0.016
x2 = 0.7001 | 0.8 ± 0.017
x2 = 0.7997 | 0.889 ± 0.019
x2 = 0.8996 | 1.011 ± 0.021
